“And” between values parts separate entries of the source, which are not always exact repeats. Equal values may be shown once. Inconclusive results and toxic doses are left out. Cut-off read from the data, not from the text of the source: active = T/C of 150% or more; inactive = T/C below 125%.
Tested on: L1210 leukemia ip in BDF1 mice, survival T/C
Test: NCI In Vivo Anticancer Drug Screen. Data for tumor model L1210 Leukemia (intraperitoneal) in B6D2F1 (BDF1) mice
Conditions: endpoint: mean survival time, higher = longer survival
Outline: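 Transplanted-tumor mice were given test agent; controls received vehicle only. Survival readings from the two groups were divided (treated over control).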

[1] = dose: 50.0 mg/kg/injection, schedule: Q01DX001 (ip), vehicle: carboxymethylcellulose (CMC)
[2] = dose: 100.0 mg/kg/injection, schedule: Q01DX001 (ip), vehicle: carboxymethylcellulose (CMC)
[3] = dose: 200.0 mg/kg/injection, schedule: Q01DX001 (ip), vehicle: carboxymethylcellulose (CMC)
[4] = dose: 400.0 mg/kg/injection, schedule: Q01DX001 (ip), vehicle: carboxymethylcellulose (CMC)
[5] = dose: 100.0 mg/kg/injection, schedule: Q04DX003 (ip), vehicle: Klucel (hydroxypropylcellulose) (HPC)
[6] = dose: 200.0 mg/kg/injection, schedule: Q04DX003 (ip), vehicle: Klucel (hydroxypropylcellulose) (HPC)
[7] = dose: 400.0 mg/kg/injection, schedule: Q04DX003 (ip), vehicle: Klucel (hydroxypropylcellulose) (HPC)
[8] = dose: 100.0 mg/kg/injection, schedule: Q01DX009 (ip), vehicle: other
[9] = dose: 200.0 mg/kg/injection, schedule: Q01DX009 (ip), vehicle: other
[10] = dose: 400.0 mg/kg/injection, schedule: Q01DX009 (ip), vehicle: other
[11] = dose: 100.0 mg/kg/injection, schedule: Q01DX009 (ip), vehicle: Klucel (hydroxypropylcellulose) (HPC)
[12] = dose: 100.0 mg/kg/injection, schedule: Q01DX001 (ip), vehicle: saline
[13] = dose: 200.0 mg/kg/injection, schedule: Q01DX001 (ip), vehicle: saline
[14] = dose: 400.0 mg/kg/injection, schedule: Q01DX001 (ip), vehicle: saline
[15] = dose: 200.0 mg/kg/injection, schedule: Q01DX009 (ip), vehicle: Klucel (hydroxypropylcellulose) (HPC)
[16] = dose: 400.0 mg/kg/injection, schedule: Q01DX009 (ip), vehicle: Klucel (hydroxypropylcellulose) (HPC)

Measured: T/C

O=C(Nc1cccc(C2=NCCN2)c1)c1ccc(C(=O)Nc2cccc(C3=NCCN3)c2)c([N+](=O)[O-])c1
inactive: dose: 1.25 mg/kg/injection, schedule: Q01DX Z (ip), vehicle: saline 93 % of control | dose: 2.5 mg/kg/injection, schedule: Q01DX Z (ip), vehicle: saline 90 % of control | dose: 5.0 mg/kg/injection, schedule: Q01DX Z (ip), vehicle: saline 86 % of control

C=C1CC(C)(c2ccccn2)OC1=O (stereo not drawn)
inactive: dose: 6.25 mg/kg/injection, schedule: Q04DX002 (ip), vehicle: Klucel (hydroxypropylcellulose) (HPC) 94 % of control | dose: 12.5 mg/kg/injection, schedule: Q04DX002 (ip), vehicle: Klucel (hydroxypropylcellulose) (HPC) 102 % of control | dose: 25.0 mg/kg/injection, schedule: Q01DX001 (ip), vehicle: Klucel (hydroxypropylcellulose) (HPC) 120 % of control | dose: 25.0 mg/kg/injection, schedule: Q04DX002 (ip), vehicle: Klucel (hydroxypropylcellulose) (HPC) 110 % of control | dose: 100.0 mg/kg/injection, schedule: Q01DX001 (ip), vehicle: Klucel (hydroxypropylcellulose) (HPC) 98 % of control

Cn1c2ccc3c(c2c(=O)c2ccoc21)C=CC(C)(C)O3
inactive: [1] 98 % of control | [2] 98 % of control | [3] 91 % of control | [4] 98 % of control

C/C=C/C=C/C(=O)N(C)c1ccccc1
inactive: [1] 111 % of control | [2] 103 % of control | [3] 103 % of control | [4] 100 % of control

CC(=O)OC1CCC2(C)C(CCC3C2CCC2(C)C3CCC2C(C)(C)O)C1 (stereo not drawn)
inactive: dose: 100.0 mg/kg/injection, schedule: Q04DX002 (ip), vehicle: DMSO 99 % of control | dose: 200.0 mg/kg/injection, schedule: Q04DX002 (ip), vehicle: DMSO 92 % of control | dose: 400.0 mg/kg/injection, schedule: Q04DX002 (ip), vehicle: DMSO 92 % of control

C=CCc1c(C)nc(N)[nH]c1=O
inactive: [5] 104 % of control | [6] 107 % of control | [7] 102 % of control

CCOC(=O)c1ccc(N(CCC(=O)CBr)C(C)=O)cc1
inactive: dose: 5.0 mg/kg/injection, schedule: Q01DX001 (ip), vehicle: carboxymethylcellulose (CMC) 97 % of control | dose: 10.0 mg/kg/injection, schedule: Q01DX001 (ip), vehicle: carboxymethylcellulose (CMC) 100 % of control | dose: 20.0 mg/kg/injection, schedule: Q01DX001 (ip), vehicle: carboxymethylcellulose (CMC) 100 % of control | dose: 40.0 mg/kg/injection, schedule: Q01DX001 (ip), vehicle: carboxymethylcellulose (CMC) 97 % of control

CCN(CC)C(=O)c1ccncc1
inactive: dose: 50.0 mg/kg/injection, schedule: Q01DX009 (ip), vehicle: saline 101 % of control | dose: 100.0 mg/kg/injection, schedule: Q01DX009 (ip), vehicle: saline 106 % of control and 88 % of control | dose: 200.0 mg/kg/injection, schedule: Q01DX009 (ip), vehicle: saline 97 % of control | dose: 400.0 mg/kg/injection, schedule: Q01DX009 (ip), vehicle: saline 111 % of control

Clc1ccc(N2CCN(c3ccc(Cl)cc3)CC2)cc1
inactive: [5] 88 % of control | [6] 101 % of control | [7] 87 % of control

CCCCCCCCC(=O)N1CCCC(C)C1 (stereo not drawn)
inactive: dose: 100.0 mg/kg/injection, schedule: Q04DX002 (ip), vehicle: saline 104 % of control | dose: 200.0 mg/kg/injection, schedule: Q04DX002 (ip), vehicle: saline 117 % of control | dose: 400.0 mg/kg/injection, schedule: Q04DX002 (ip), vehicle: saline 101 % of control

C1CCC2(CC1)SC1(CCCCC1)SC1(CCCCC1)S2
inactive: [8] 94 % of control | dose: 100.0 mg/kg/injection, schedule: Q04DX003 (ip), vehicle: other 95 % of control | [9] 95 % of control | dose: 200.0 mg/kg/injection, schedule: Q04DX003 (ip), vehicle: other 97 % of control | [10] 92 % of control | dose: 400.0 mg/kg/injection, schedule: Q04DX003 (ip), vehicle: other 97 % of control

CC(=O)O/C=C1\CC2C3CC=C4CC(OC(C)=O)CCC4(C)C3CCC2(C)C1=O (stereo not drawn)
inactive: dose: 200.0 mg/kg/injection, schedule: Q01DX001 (ip), vehicle: saline with Tween-80 90 % of control | dose: 400.0 mg/kg/injection, schedule: Q01DX001 (ip), vehicle: saline with Tween-80 90 % of control

CC(NC(=O)NCCCl)c1ccco1 (stereo not drawn)
inactive: dose: 6.25 mg/kg/injection, schedule: Q01DX009 (ip), vehicle: Klucel (hydroxypropylcellulose) (HPC) 104 % of control | dose: 12.5 mg/kg/injection, schedule: Q01DX009 (ip), vehicle: Klucel (hydroxypropylcellulose) (HPC) 98 % of control | dose: 25.0 mg/kg/injection, schedule: Q01DX009 (ip), vehicle: Klucel (hydroxypropylcellulose) (HPC) 109 % of control | dose: 50.0 mg/kg/injection, schedule: Q01DX009 (ip), vehicle: Klucel (hydroxypropylcellulose) (HPC) 114 % of control | [11] 106 % of control | [5] 101 % of control | [6] 93 % of control

CNC(=O)Oc1ccc(C(=O)OC)cc1
inactive: [12] 93 % of control | [13] 90 % of control | [14] 122 % of control

COc1cc2c(cc1OC)C1CNC(=O)C1C(c1ccccc1)C2 (stereo not drawn)
inactive: dose: 50.0 mg/kg/injection, schedule: Q04DX003 (ip), vehicle: Klucel (hydroxypropylcellulose) (HPC) 103 % of control | [11] 100 % of control | [5] 98 % of control | [15] 102 % of control | [6] 95 % of control | [16] 94 % of control | [7] 98 % of control

COc1cc(OC)c(Cl)c(OC)c1
inactive: [8] 120 % of control | dose: 100.0 mg/kg/injection, schedule: Q04DX003 (ip), vehicle: saline 101 % of control | [9] 103 % of control | dose: 200.0 mg/kg/injection, schedule: Q04DX003 (ip), vehicle: saline 100 % of control | [10] 108 % of control | dose: 400.0 mg/kg/injection, schedule: Q04DX003 (ip), vehicle: saline 101 % of control

Cc1c(Cl)nc(Cl)nc1Cl
inactive: dose: 8.0 mg/kg/injection, schedule: Q01DX015 (ip), vehicle: carboxymethylcellulose (CMC) 104 % of control | dose: 16.0 mg/kg/injection, schedule: Q01DX015 (ip), vehicle: carboxymethylcellulose (CMC) 98 % of control | dose: 32.0 mg/kg/injection, schedule: Q01DX015 (ip), vehicle: carboxymethylcellulose (CMC) 96 % of control | dose: 50.0 mg/kg/injection, schedule: Q01DX001 (ip), vehicle: saline 101 % of control | dose: 64.0 mg/kg/injection, schedule: Q01DX015 (ip), vehicle: carboxymethylcellulose (CMC) 106 % of control | dose: 75.0 mg/kg/injection, schedule: Q01DX015 (ip), vehicle: carboxymethylcellulose (CMC) 98 % of control | [12] 101 % of control | dose: 150.0 mg/kg/injection, schedule: Q01DX015 (ip), vehicle: carboxymethylcellulose (CMC) 91 % of control | [13] 104 % of control | [14] 104 % of control

CC1CC2C(CC1=O)C(C)(C)CCC2(C)C (stereo not drawn)
inactive: [11] 92 % of control | [15] 94 % of control | [6] 107 % of control | [16] 90 % of control | [7] 91 % of control

CCCCCCCCCCCCNC(C)=O
inactive: dose: 100.0 mg/kg/injection, schedule: Q01DX005 (ip), vehicle: Klucel (hydroxypropylcellulose) (HPC) 97 % of control | [11] 105 % of control | dose: 100.0 mg/kg/injection, schedule: Q04DX002 (ip), vehicle: Klucel (hydroxypropylcellulose) (HPC) 98 % of control | dose: 100.0 mg/kg/injection, schedule: Q04DX003 (ip), vehicle: saline with Tween-80 97 % of control | dose: 200.0 mg/kg/injection, schedule: Q01DX005 (ip), vehicle: Klucel (hydroxypropylcellulose) (HPC) 94 % of control | [15] 99 % of control | dose: 200.0 mg/kg/injection, schedule: Q04DX002 (ip), vehicle: Klucel (hydroxypropylcellulose) (HPC) 91 % of control | dose: 200.0 mg/kg/injection, schedule: Q04DX003 (ip), vehicle: saline with Tween-80 98 % of control | dose: 400.0 mg/kg/injection, schedule: Q01DX005 (ip), vehicle: Klucel (hydroxypropylcellulose) (HPC) 102 % of control | dose: 400.0 mg/kg/injection, schedule: Q04DX002 (ip), vehicle: Klucel (hydroxypropylcellulose) (HPC) 106 % of control | dose: 400.0 mg/kg/injection, schedule: Q04DX003 (ip), vehicle: saline with Tween-80 90 % of control

Reference: PubChem BioAssay AID248 (DTP/NCI, 2004)
